Assay results published in patent US20170172953A1, “SELF-ASSEMBLING DRUG DELIVERY VEHICLES WITH IONICALLY CROSS-LINKED DRUGS” (WILLIAM MARSH RICE UNIVERSITY, priority 2014, published 2017).
“Also recorded” adds a separate entry of the source.

Legend:
[1] = Suramin drug loading and release from MDP hydrogel into HBSS; assay type: physicochemical
Procedure: Suramin was dissolved in 0.9% saline and loaded into MDP hydrogel (100 μL of SLac dissolved in 298 mM sucrose+100 μL of drug/saline) in microcentrifuge tubes. 1 mL of release media (HBSS) was added to gels placed in a humidified 5% CO2 cell culture incubator at 37° C. 200 μL aliquots of release media were assayed, with replenishment, daily for 30 days. To determine short term release kinetics, in a separate setup, aliquots were assayed at 1, 2, 4, 8, 12, 24, 48 and 72 hr. Concentration of drug was determined using UV spectrophotometry at 313 nm, n=5. Mass release data were plotted as a function of cumulative release of drug in Sigmaplot. Drug release was modeled using the Korsmeyer-Peppas equation.

[2] = Parallel plate rheometry of crosslinked SLac peptide hydrogels; assay type: physicochemical; conditions: drug as crosslinker of 1 w % SLac hydrogel, pH 7.4
Procedure: Peptide solutions were made by dissolving lyophilized SLac in 298 mM sucrose-water at a concentration of 2 w %, pH 7.4. Hydrogels were constructed by addition of Hank's balanced salt solution (HBSS) at a 1:1 ratio. Multivalent drugs were added at similar concentrations, approximating physiological doses, to SLac solutions with final concentrations of: SLac—0.4 mM (1 w %); concentration of positive lysine charges—0.8 mM; suramin—3.8 mM (0.5 w %) or 0.38 mM (0.05 w %); trypan blue—3.2 mM (0.2 w %); heparin ˜2.78 mM (5 w %); clodronate disodium—3.4 mM; phosphate buffer—38 mM and 5 mM; and 0.9% saline. Negatively charged polyvalent ions in buffer solution facilitated intermolecular ionic interactions with lysine residues, crosslinking the hydrogel. Rheological behavior of peptide hydrogels was determined using an 8 mm parallel plate geometry at a gap of 250 μm. 50 μL of hydrogel was constructed and, within 30 min, placed on stainless steel plates of a rheometer. A frequency sweep (0.1-100 Hz, at constant 1% strain), strain sweep (0-1000%/strain, at 1 Hz) and shear recovery (1% strain for 30 min, 100% strain for 60 s, 1% strain for 30 min) were performed. We ensured the phase angle δ≦90° to ensure no slipping.

release exponent (t) of Korsmeyer-Peppas model ([1]; 1 mg/mL loaded gels): ≈ 1.0
mechanism of release ([1]; 10 mg/mL loaded gels): diffusion dependent
release exponent (t) of Korsmeyer-Peppas model ([1]; 10 mg/mL loaded gels): ≈ 0.5
Maximum cumulative suramin concentration ([1]; high loading): 0.6 mg/mL
Maximum cumulative suramin concentration ([1]; low loading): 0.04 mg/mL
drug release ([1]; over a 20 day period, from SLac-based scaffolds): approximately 50%
retention of drug ionically cross-linked ([1]; over a period of 30 days): up to 40%
drug releasing from hydrogel scaffolds ([1]; over the first 30 days, depending on loading concentration): 40-60%
Compound: Cc1ccc(C(=O)Nc2ccc(S(=O)(=O)O)c3cc(S(=O)(=O)O)cc(S(=O)(=O)O)c23)cc1NC(=O)c1cccc(NC(=O)Nc2cccc(C(=O)Nc3cc(C(=O)Nc4ccc(S(=O)(=O)O)c5cc(S(=O)(=O)O)cc(S(=O)(=O)O)c45)ccc3C)c2)c1 [suramin]
mechanism of release ([1]; 1 mg/mL loaded gels): non-Fickian diffusion/Case II transport dependent
mechanical strength, storage modulus G′ / loss modulus G″ [2]: order of magnitude increase in mechanical strength with increase in concentration; also recorded: an order of magnitude higher G′/G″
